Assay results: patent US10117944B2, “Targeted therapeutics” (Madrigal Pharmaceuticals, Inc., priority 2014, dated 2018)

How the values were obtained:
[1] = Stability of SDC-TRAPs in mouse plasma; type: in vitro ADME; conditions: 37° C.
Description: SDC-TRAPs were incubated in mouse plasma for 1 h at 37° C. and assayed for integrity at 0, 0.25, 0.5 and 1 h to assess the stability of the SDC-TRAP, e.g., as compared to the effector and targeting compounds. Compound stability was determined using […].

[2] = test system: HER2; assay: HER2 degradation assay with BT-474 cell line; type: cell-based, human; conditions: BT-474 cells, overnight incubation
[3] = estimated; cited from earlier work
[4] = phase I trial; cited from earlier work

% Remaining (1 h) [1] [%] | IC50 [2] [nM] | Compound | Patients presenting with peripheral neuropathy [3] | Dose at which dose-limiting toxic effects are observed [4] [mg/m^2]
62.9 | 100 | CCNC(=O)c1nnc(-c2cc(C(C)C)c(O)cc2O)n1-c1ccc(C(=O)N(C)CC[C@]23OB([C@H](CC(C)C)NC(=O)[C@H](Cc4ccccc4)NC(=O)c4cnccn4)O[C@H]2C[C@H]2C[C@@H]3C2(C)C)cc1 [SDC-TRAP-0244, N—((S)-1-(((R)-1-((3aR,4R,6R,7aS)-3a-(2-(4-(3-(2,4-dihydroxy-5-isopropylphenyl)-5-(ethylcarbamoyl)-4H-1,2,4-triazol-4-yl)-N-methylbenzamido)ethyl)-5,5-dimethylhexahydro-4,6-methanobenzo[d][1,3,2]dioxaborol-2-yl)-3-methylbutyl)amino)-1-oxo-3-phenylpropan-2-yl)pyrazine-2-carboxamide] | – | –
63.6 | 110 | CCNC(=O)c1nnc(-c2cc(C(C)C)c(O)cc2O)n1-c1ccc(Oc2ccc(C(=O)NCCCCCCC3(C)OB([C@H](CC(C)C)NC(=O)[C@H](Cc4ccccc4)NC(=O)c4cnccn4)OC3(C)C)cc2)cc1 (stereo partly drawn) [SDC-TRAP-0246, N-((2S)-1-(((1R)-1-(4-(6-(4-(4-(3-(2,4-dihydroxy-5-isopropylphenyl)-5-(ethylcarbamoyl)-4H-1,2,4-triazol-4-yl)phenoxy)benzamido)hexyl)-4,5,5-trimethyl-1,3,2-dioxaborolan-2-yl)-3-methylbutyl)amino)-1-oxo-3-phenylpropan-2-yl)pyrazine-2-carboxamide] | – | –
11.8 | 36 | CCNC(=O)c1nnc(-c2cc(C(C)C)c(O)cc2O)n1-c1ccc(C(=O)NCCCCCCC2(C)OB([C@H](CC(C)C)NC(=O)[C@H](Cc3ccccc3)NC(=O)c3cnccn3)OC2(C)C)cc1 (stereo partly drawn) [SDC-TRAP-0247, N-((2S)-1-(((1R)-1-(4-(6-(4-(3-(2,4-dihydroxy-5-isopropylphenyl)-5-(ethylcarbamoyl)-4H-1,2,4-triazol-4-yl)benzamido)hexyl)-4,5,5-trimethyl-1,3,2-dioxaborolan-2-yl)-3-methylbutyl)amino)-1-oxo-3-phenylpropan-2-yl)pyrazine-2-carboxamide] | – | –
54.8 | 37 | CCNC(=O)c1nnc(-c2cc(C(C)C)c(O)cc2O)n1-c1ccc(Oc2ccc(C(=O)NCC[C@]34OB([C@H](CC(C)C)NC(=O)[C@H](Cc5ccccc5)NC(=O)c5cnccn5)O[C@H]3C[C@@H]3C[C@H]4C3(C)C)cc2)cc1 [SDC-TRAP-0248, N—((S)-1-(((R)-1-((3aR,4S,6S,7aS)-3a-(2-(4-(4-(3-(2,4-dihydroxy-5-isopropylphenyl)-5-(ethylcarbamoyl)-4H-1,2,4-triazol-4-yl)phenoxy)benzamido)ethyl)-5,5-dimethylhexahydro-4,6-methanobenzo[d][1,3,2]dioxaborol-2-yl)-3-methylbutyl)amino)-1-oxo-3-phenylpropan-2-yl)pyrazine-2-carboxamide] | – | –
8.93 | 36 | CCNC(=O)c1nnc(-c2cc(C(C)C)c(O)cc2O)n1-c1ccc(Oc2ccc(C(=O)N3CCC4(CC3)OB([C@H](CC(C)C)NC(=O)[C@H](Cc3ccccc3)NC(=O)c3cnccn3)OC4(C)C)cc2)cc1 [SDC-TRAP-0249, N—((S)-1-(((R)-1-(8-(4-(4-(3-(2,4-dihydroxy-5-isopropylphenyl)-5-(ethylcarbamoyl)-4H-1,2,4-triazol-4-yl)phenoxy)benzoyl)-4,4-dimethyl-1,3-dioxa-8-aza-2-boraspiro[4.5]decan-2-yl)-3-methylbutyl)amino)-1-oxo-3-phenylpropan-2-yl)pyrazine-2-carboxamide] | – | –
27.0 | 2120 | CC(C)C[C@H](NC(=O)[C@H](Cc1ccccc1)NC(=O)c1cnccn1)B1OC(C)(C)C2(CCN(C(=O)CCn3ccc4cc(-n5c(O)nnc5-c5cc(C(C)C)c(O)cc5O)ccc43)CC2)O1 [SDC-TRAP-0250, N—((S)-1-(((R)-1-(8-(3-(5-(3-(2,4-dihydroxy-5-isopropylphenyl)-5-hydroxy-4H-1,2,4-triazol-4-yl)-1H-indol-1-yl)propanoyl)-4,4-dimethyl-1,3-dioxa-8-aza-2-boraspiro[4.5]decan-2-yl)-3-methylbutyl)amino)-1-oxo-3-phenylpropan-2-yl)pyrazine-2-carboxamide] | – | –
13.4 | > 5000 | CCNC(=O)c1nnc(-c2cc(C(C)C)c(O)cc2O)n1-c1ccc(C(=O)N2CCC3(CC2)OB([C@H](CC(C)C)NC(=O)[C@H](Cc2ccccc2)NC(=O)c2cnccn2)OC3(C)C)cc1 [SDC-TRAP-0251, N—((S)-1-(((R)-1-(8-(4-(3-(2,4-dihydroxy-5-isopropylphenyl)-5-(ethylcarbamoyl)-4H-1,2,4-triazol-4-yl)benzoyl)-4,4-dimethyl-1,3-dioxa-8-aza-2-boraspiro[4.5]decan-2-yl)-3-methylbutyl)amino)-1-oxo-3-phenylpropan-2-yl)pyrazine-2-carboxamide] | – | –
– | – | CC(C)C[C@H](NC(=O)[C@H](Cc1ccccc1)NC(=O)c1cnccn1)B(O)O [bortezomib] | more than 40% | 1.5
